Reference: ChEMBL document CHEMBL1201862, “PubChem BioAssay data set” (2004)
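Interpolation was linear, between the two tested concentrations surrounding the appropriate level; five concentrations were tested over 48 hours in 96-well plates. Here, GI50 denotes the concentration required for 50% inhibition of growth.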 Active and inactive are the calls of the source. No stated cut-off is given here; in the data, active = GI50 up to about 1.1 µM and inactive = higher.

Assays:
Assay in all cases: NCI-60 cell line screen, 48 h
786-0 = tested on: 786-0
A498 = tested on: A498
A549 = tested on: A549
ACHN = tested on: ACHN
BT-549 = tested on: BT-549
CAKI-1 = tested on: CAKI-1
CCRF-CEM = tested on: CCRF-CEM
COLO 205 = tested on: COLO 205
DU-145 = tested on: DU-145
EKVX = tested on: EKVX
HCC 2998 = tested on: HCC 2998
HCT-116 = tested on: HCT-116
HCT-15 = tested on: HCT-15
HL-60 = tested on: HL-60
HOP-62 = tested on: HOP-62
HOP-92 = tested on: HOP-92
HT-29 = tested on: HT-29
Hs-578T = tested on: Hs-578T
IGROV-1 = tested on: IGROV-1
K562 = tested on: K562
KM12 = tested on: KM12
LOX IMVI = tested on: LOX IMVI
M14 = tested on: M14
MCF7 = tested on: MCF7
MDA-MB-231 = tested on: MDA-MB-231
MDA-MB-435 = tested on: MDA-MB-435
MDA-N = tested on: MDA-N
MOLT-4 = tested on: MOLT-4
Malme-3M = tested on: Malme-3M
NCI-H226 = tested on: NCI-H226
NCI-H23 = tested on: NCI-H23
NCI-H460 = tested on: NCI-H460
NCI-H522 = tested on: NCI-H522
NCI/ADR-RES = tested on: NCI/ADR-RES
OVCAR-3 = tested on: OVCAR-3
OVCAR-4 = tested on: OVCAR-4
OVCAR-5 = tested on: OVCAR-5
OVCAR-8 = tested on: OVCAR-8
PC-3 = tested on: PC-3
RPMI-8226 = tested on: RPMI-8226
RXF 393 = tested on: RXF 393
SF-268 = tested on: SF-268
SF-295 = tested on: SF-295
SF-539 = tested on: SF-539
SK-MEL-28 = tested on: SK-MEL-28
SK-MEL-2 = tested on: SK-MEL-2
SK-MEL-5 = tested on: SK-MEL-5
SK-OV-3 = tested on: SK-OV-3
SN12C = tested on: SN12C
SNB-19 = tested on: SNB-19
SNB-75 = tested on: SNB-75
SR = tested on: SR
SW-620 = tested on: SW-620
T47D = tested on: T47D
TK-10 = tested on: TK-10
U-251 = tested on: U-251
UACC-257 = tested on: UACC-257
UACC-62 = tested on: UACC-62
UO-31 = tested on: UO-31

O=C1c2sccc2C(=O)c2c(CO)csc21
GI50 (786-0): 3.94 µM (inactive) | GI50 (A498): 13.7 µM (inactive) | GI50 (A549): 0.695 µM (active) | GI50 (ACHN): 3.52 µM (inactive) | GI50 (BT-549): 3.59 µM (inactive) | GI50 (CAKI-1): 15.1 µM (inactive) | GI50 (CCRF-CEM): 3.37 µM (inactive) | GI50 (COLO 205): 2.69 µM (inactive) | GI50 (DU-145): 2.66 µM (inactive) | GI50 (EKVX): 6.97 µM (inactive) | GI50 (HCC 2998): 3.44 µM (inactive) | GI50 (HCT-116): 3.04 µM (inactive) | GI50 (HCT-15): 2.49 µM | GI50 (HL-60): 1.29 µM (inactive) | GI50 (HOP-62): 4.71 µM (inactive) | GI50 (HOP-92): 7.5 µM (inactive) | GI50 (HT-29): 3.3 µM (inactive) | GI50 (Hs-578T): 4.17 µM (inactive) | GI50 (IGROV-1): 4.03 µM (inactive) | GI50 (K562): 7.01 µM (inactive) | GI50 (KM12): 5.02 µM (inactive) | GI50 (LOX IMVI): 2.88 µM (inactive) | GI50 (M14): 2.21 µM (inactive) | GI50 (MCF7): 5.12 µM (inactive) | GI50 (MDA-MB-231): 17.2 µM (inactive) | GI50 (MDA-MB-435): 1.94 µM (inactive) | GI50 (MDA-N): 1.72 µM (inactive) | GI50 (MOLT-4): 4.89 µM (inactive) | GI50 (Malme-3M): 1.91 µM (inactive) | GI50 (NCI-H226): 4.82 µM (inactive) | GI50 (NCI-H23): 2.07 µM (inactive) | GI50 (NCI-H460): 2.25 µM (inactive) | GI50 (NCI-H522): 1.92 µM (inactive) | GI50 (NCI/ADR-RES): 3.63 µM (inactive) | GI50 (OVCAR-3): 1.9 µM (inactive) | GI50 (OVCAR-4): 2.16 µM (inactive) | GI50 (OVCAR-5): 21.2 µM (inactive) | GI50 (OVCAR-8): 3.66 µM (inactive) | GI50 (PC-3): 3.32 µM (inactive) | GI50 (RPMI-8226): 5.26 µM (inactive) | GI50 (RXF 393): 1.39 µM (inactive) | GI50 (SF-268): 6.5 µM (inactive) | GI50 (SF-295): 2.69 µM (inactive) | GI50 (SF-539): 3.65 µM (inactive) | GI50 (SK-MEL-28): 7.8 µM (inactive) | GI50 (SK-MEL-2): 2.85 µM (inactive) | GI50 (SK-MEL-5): 0.83 µM (active) | GI50 (SK-OV-3): 11.4 µM (inactive) | GI50 (SN12C): 6.46 µM (inactive) | GI50 (SNB-19): 5.56 µM (inactive) | GI50 (SNB-75): 5.24 µM (inactive) | GI50 (SR): 3.42 µM (inactive) | GI50 (SW-620): 6.98 µM (inactive) | GI50 (T47D): 4.71 µM (inactive) | GI50 (TK-10): 7.05 µM (inactive) | GI50 (U-251): 6.03 µM (inactive) | GI50 (UACC-257): 2.15 µM (inactive) | GI50 (UACC-62): 2.52 µM (inactive) | GI50 (UO-31): 7.76 µM (inactive)
